Patent US10898561B2, “Peptides and combination of peptides for use in immunotherapy against pancreatic cancer and other cancers” (IMMATICS BIOTECHNOLOGIES GMBH, priority 2015, dated 2021)

Experiments:
[1] = target: HLA-A*02:01 (Homo sapiens, UniProt P04439, D140Y/D185E/D98H/E176V/E277Q/G131W/G231S/I119V/I121R/I166T/I218V/L300P/L318F/N151K/N90K/P208A/P217A/Q86G/Q94H/R138H/R169H/T345S); assay: MHC binding assay: UV-ligand exchange with beta2m ELISA; conditions: MHC class I binding score, yield of UV-ligand exchange
From the text: Candidate peptides for T cell based therapies according to the present invention were further tested for their MHC binding capacity (affinity). The individual peptide-MHC complexes were produced by UV-ligand exchange, where a UV-sensitive peptide is cleaved upon UV-irradiation, and exchanged with the peptide of interest as analyzed. Only peptide candidates that can effectively bind and stabilize the peptide-receptive MHC molecules prevent dissociation of the MHC complexes. To determine the yield of the exchange reaction, an ELISA was performed based on the detection of the light chain (β2m) of stabilized MHC complexes. The assay was performed as generally described in Rodenko et al. (Rodenko et al., 2006).
96 well MAXISorp plates (NUNC) were coated over night with 2 ug/ml streptavidin in PBS at room temperature, washed 4× and blocked for 1 h at 37° C. in 2% BSA containing blocking buffer. Refolded HLA-A*02:01/MLA-001 monomers served as standards, covering the range of 15-500 ng/ml. Peptide-MHC monomers of the UV-exchange reaction were diluted 100 fold in blocking buffer. Samples were incubated for 1 h at 37° C., washed four times, incubated with 2 ug/ml HRP conjugated anti-β2m for 1 h at 37° C., washed again and detected with TMB solution that is stopped with […]. Absorption was measured at 450 nm. Candidate peptides that show a high exchange yield (preferably higher than 50%, most preferred higher than 75%) are generally preferred for a generation and production of antibodies or fragments thereof, and/or T cell receptors or fragments thereof, as they show sufficient avidity to the MHC molecules and prevent dissociation of the MHC complexes.

[2] = test system: CD8+ T cells; assay: In vitro T-cell priming assay with aAPCs loaded with peptide/MHC complexes and anti-CD28 antibody, multimer readout; format: cell-based, human; conditions: in vitro immunogenicity, healthy HLA-A*02 donors; for donors: positive donors; for wells: positive wells
From the text: In order to obtain information regarding the immunogenicity of the TUMAPs of the present invention, the inventors performed investigations using an in vitro T-cell priming assay based on repeated stimulations of CD8+ T cells with artificial antigen presenting cells (aAPCs) loaded with peptide/MHC complexes and anti-CD28 antibody.
In order to perform in vitro stimulations by artificial antigen presenting cells loaded with peptide-MHC complex (pMHC) and anti-CD28 antibody, the inventors first isolated CD8+ T cells from fresh HLA-A*02 leukapheresis products via positive selection using CD8 microbeads (Miltenyi Biotec, Bergisch-Gladbach, Germany) of healthy donors obtained from the University clinics Mannheim, Germany, after informed consent.
PBMCs and isolated CD8+ lymphocytes were incubated in T-cell medium (TCM) until use consisting of RPMI-Glutamax (Invitrogen, Karlsruhe, Germany) supplemented with 10% heat inactivated human AB serum (PAN-Biotech, Aidenbach, Germany), 100 U/ml Penicillin/100 μg/ml Streptomycin (Cambrex, Cologne, Germany), 1 mM sodium pyruvate (CC Pro, Oberdorla, Germany), 20 μg/ml Gentamycin (Cambrex). 2.5 ng/ml IL-7 (PromoCell, Heidelberg, Germany) and 10 U/ml IL-2 (Novartis Pharma, Nürnberg, Germany) were also added to the TCM at this step.
Generation of pMHC/anti-CD28 coated beads, T-cell stimulations and readout was performed in a highly defined in vitro system using four different pMHC molecules per stimulation condition and 8 different pMHC molecules per readout condition.
The purified co-stimulatory mouse IgG2a anti human CD28 Ab 9.3 (Jung et al., 1987) was chemically biotinylated using Sulfo-N-hydroxysuccinimidobiotin as recommended by the manufacturer (Perbio, Bonn, Germany). Beads used were 5.6 μm diameter streptavidin coated polystyrene particles (Bangs Laboratories, Ill., USA).
800.000 beads/200 μl were coated in 96-well plates in the presence of 4×12.5 ng different biotin-pMHC, washed and 600 ng biotin anti-CD28 were added subsequently in a volume of 200 μl. Stimulations were initiated in 96-well plates by co-incubating 1×10^6 CD8+ T cells with 2×10^6 washed coated beads in 200 μl TCM supplemented with 5 ng/ml IL-12 (PromoCell) for 3 days at 37° C. Half of the medium was then exchanged by fresh TCM supplemented with 80 U/ml IL-2 and incubating was continued for 4 days at 37° C. This stimulation cycle was performed for a total of three times. For the pMHC multimer readout using 8 different pMHC molecules per condition, a two-dimensional combinatorial coding approach was used as previously described (Andersen et al., 2012) with minor modifications encompassing coupling to 5 different fluorochromes. Finally, multimeric analyses were performed by staining the cells with Live/dead near IR dye (Invitrogen, Karlsruhe, Germany), CD8-FITC antibody clone SK1 (BD, Heidelberg, Germany) and fluorescent pMHC multimers. For analysis, a BD LSRII SORP cytometer equipped with appropriate lasers and filters was used. Peptide specific cells were calculated as percentage of total CD8+ cells. Evaluation of multimeric analysis was done using the FlowJo software (Tree Star, Oregon, USA). In vitro priming of specific multimer+CD8+ lymphocytes was detected by comparing to negative control stimulations.

Substance: 3 (ALLTFMEQV; listed as Homo sapiens) [compound 3]
- Peptide exchange [1]: +++ (50%-75% = +++)
- Wells positive [%] [2]: ++ (20%-49% = ++)

Substance: 20 (RLAGDGVGAV; listed as Homo sapiens) [compound 20]
- Peptide exchange [1]: ++ (20%-49% = ++)
- Wells positive [%] [2]: ++++ (>=70% = ++++)

Substance: 21 (HLMDQPLSV; listed as Homo sapiens) [compound 21]
- Peptide exchange [1]: ++ (20%-49% = ++)
- Wells positive [%] [2]: + (<20% = +)

Substance: 23 (SLSAFTLFL; listed as Homo sapiens) [compound 23]
- Peptide exchange [1]: ++ (20%-49% = ++)
- Wells positive [%] [2]: ++ (20%-49% = ++)

Substance: 34 (MLMPVHFLL; listed as Homo sapiens) [compound 34]
- Peptide exchange [1]: ++++ (>=75% = ++++)
- Wells positive [%] [2]: + (<20% = +)

Substance: 37 (GLLKKINSV; listed as Homo sapiens) [compound 37]
- Peptide exchange [1]: ++ (20%-49% = ++)
- Wells positive [%] [2]: + (<20% = +)

Substance: 50 (ALAAILTRL; listed as Homo sapiens) [compound 50]
- Peptide exchange [1]: +++ (50%-75% = +++)
- Wells positive [%] [2]: +++ (50%-69% = +++)

Substance: 69 (VMAPFTMTI; listed as Homo sapiens) [compound 69]
- donors [2]: ++++ (>=70% = ++++)
- wells [2]: ++ (20%-49% = ++)

Substance: 87 (LLLGSPAAA; listed as Homo sapiens) [compound 87]
- donors [2]: +++ (50%-69% = +++)
- wells [2]: + (<20% = +)
